The subject of one series is B. subtilis. As to the kind of experiment: Antimicrobial MIC, agar cup diffusion. The following applies: for MIC: Bacillus subtilis, B. subtilis, read-out: MIC (minimum inhibitory concentration); for activity against Bacillus compared with ciprofloxacin: in words. The format is cell-based.
In the next series the test system is S. typhi. As to the kind of experiment: Antimicrobial MIC, agar cup diffusion. The format is cell-based. To be noted: Salmonella enterica, read-out: MIC (minimum inhibitory concentration).
For a further series, the system named is K. pneumoniae. As to the kind of experiment: Antimicrobial MIC, agar cup diffusion. The format is cell-based. To be noted: Klebsiella pneumoniae, read-out: MIC (minimum inhibitory concentration).
Another series has as its system C. albicans. Description: Antimicrobial MIC, agar cup diffusion. The following applies: Candida albicans, read-out: MIC (minimum inhibitory concentration). The format is cell-based.
In another series the test system is A. niger. As to the kind of experiment: Antimicrobial MIC, agar cup diffusion. The format is cell-based. The following applies: Aspergillus niger, read-out: MIC (minimum inhibitory concentration).
Another series deals with P. falciparum strain W2. As to the kind of experiment: In vitro antimalarial assay. To be noted: for MIC: Plasmodium falciparum, W2, P. falciparum. The format is cell-based.
For series [1], the system named is Plasmodium berghei infection in mice. Description: In vivo antimalaria test. To be noted: P. berghei infected mice; for inhibition in vivo at 100 mg/kg / inhibition in vivo at 200 mg/kg: Plasmodium berghei, oral. Here is the method:
Experimental Design and Treatment of Mice. Methods of Peter et al.[30] and Kalra et al.[31] for antiplasmodial assay against Plasmodium berghei infection in mice with some modifications were employed. About eighty infected mice were randomly divided into five groups, each having […] mice. The inoculum was prepared from a donor mouse with rising parasitemia of 60.42%. After 7 days of infection, animals begin to receive treatment (100 and 200 mg/kg b wt.) of the synthesized compounds (7a–7n) for 12 days with constant check of the percentage of parasitemia after a 4-day interval. Artemisinin (100 and 200 mg/kg body weight.) was given to the other mice in group three as positive control, group four was not treated and group five was not infected. All the compounds and the drugs were given orally by using a standard intragastric tube. For all parasitemia determination, blood samples were collected from tail snip of each mouse and thin smears prepared and stained with 10% Giemsa solution. The uniform fields of each stained slide (for each mouse) were examined under microscope with an oil immersion objective of 100X magnification power and average percent of parasitemia was determined.
To determine the in vivo activity, the compounds were tested against P. berghei NK(65 Strain) infection mice., the animals were obtained from Nigeria institute for Trypanosoma and onchocercarioses Research (NTIR) Vom, Plateau State Nigeria. The permission and approval for the use of animals in this experiment were granted by the Animal Ethics Committee, Federal College of Vetrenary Medical Laboratory, Vom, Plateau State. Method of Peter et al.[30], for antiplasmodial assay against P. berghei in mice with some modification were employed. Artemisimin was used as treated control of the experiments. The percentage inhibition of parasite multiplication was calculated comparing the treated group with untreated group by means of the following formula[39] [(A − B)/A] × 100; where A = parasitaemia in the untreated group and B = parasitemia in the test group. […] Most of the compounds were active against P. berghei after 7 days post-infection by reducing the parasiteamia by at least 40% when in a dose of 100 mg/kg (Table 5). The inhibition of parasitaemia increased on 12th day post infection for almost all the compounds. […] However in consideration of the compounds ability to inhibit parasitaemia to the control drug. […] These compounds should be considered for further studies because of its promising activities.

A further series relates to E. coli. As to the kind of experiment: Antimicrobial MIC, agar cup diffusion. The following applies: Escherichia coli, read-out: MIC (minimum inhibitory concentration). The format is cell-based.
Another series in a line: Liver function tests. The arrangement: Glucose: unit not given here. The format is in vivo. The following applies: mice, 10 mg/kg. From the text:
(§1) Twenty-four hours before the injecting the compounds, the blood sample of five mice was taken and it was also taken after the last day of treatment, the animals were sacrificed by cervical dislocation and the blood samples were collected by heart puncture. The blood samples for haematological parameters (red blood cell (RBC) count, white blood cell (WBC) count, packed cell volume (PCV), and hemoglobin (HGB)) were collected into EDTA bottles and analyzed using an automated machine (Automated CBC Analyzer: Sysmex KX-21). The liver function tests carried out with the blood of the rats fed with the sulfonamide derivatives were aspartate aminotransperase (AST), alanine transaminase (ALT) and alkaline phosphatase (ALP). Standard laboratory procedure according to Reitman and Franke[32] was used for the determination of parameters.

Series [2] is described as follows: Renal or kidney function test. The format is in vivo. The following applies: mice, 10 mg/kg.
Source text: as §1, with “KX-21). Kidney” for “KX-21). The liver”, “derivatives were, creatinine” for “derivatives were aspartate aminotransperase (AST), alanine transaminase (ALT)”, “and albunim. The method reported by Kaplan” for “and alkaline phosphatase (ALP). Standard laboratory procedure according to Reitman”, “and Tengv[33]” for “and Franke[32]”, “used in” for “used for”, “of creatinine.” for “of parameters.”

The next series is described as follows: Haematological analysis. The format is in vivo, mice. From the text:
Twenty-four hours before the injecting the compounds, the blood sample of five mice was taken and it was also taken after the last day of treatment, the animals were sacrificed by cervical dislocation and the blood samples were collected by heart puncture. The blood samples for haematological parameters (red blood cell (RBC) count, white blood cell (WBC) count, packed cell volume (PCV), and hemoglobin (HGB)) were collected into EDTA bottles and analyzed using an automated machine (Automated CBC Analyzer: Sysmex KX-21).
The blood samples for haematological parameters (red blood cell (RBC) count, white blood cell (WBC) count, packed cell volume (PCV), and haemoglobin (HGB)) were collected into EDTA bottles and analyzed using an automated machine (Automated CBC Analyzer: Sysmex KX-21) (Table 8). From the analysis, even though there is a decrease in the value of RBC, PCV and HB, it is observed that there is no significant changes in the parameters that were analyzed for the control and the test compounds.

The mark [3] stands for this setting: 48 h, >99% of parasites inhibited from developing to schizonts.
Where [4] appears, read: 168 h, read-out: % inhibition 7 days post-treatment (100 mg/kg), day 7.
Where [5] appears, read: 168 h, read-out: % inhibition 7 days post-treatment (200 mg/kg), day 7.
[6] abbreviates: 288 h, read-out: % inhibition 12 days post-treatment (100 mg/kg), day 12.
Setting [7] is: 288 h, read-out: % inhibition 12 days post-treatment (200 mg/kg), day 12.

In brackets after ≈: the same amount, converted by molar mass. Where two headings read alike, the source gives them in different places.

We go through four molecules from PMC6713104, “New peptide derived antimalaria and antimicrobial agents bearing sulphonamide moiety” (Journal of Enzyme Inhibition and Medicinal Chemistry, 2019).

Turning to `CC(NS(=O)(=O)c1ccccc1)C(=O)NCC(=O)Nc1ccc2ccccc2c1` (centres unmarked) [Compound 7g, N-(2-(naphthalene-2-ylamino)-2-oxoethyl)-2-(phenylsulfonamido)propanamide], the melting point fell in the range of 170 to 172 °C. Moreover, in the series with B. subtilis, the MIC was determined as 141 µg/mL (≈ 343 µM) and the “activity against Bacillus compared with ciprofloxacin” value is reported as “greater activity against Bacillus than ciprofloxacin”. Also, the MIC in the series with S. typhi is 79 µg/mL (≈ 192 µM). Moreover, in the series with K. pneumoniae, the MIC amounted to 166 µg/mL (≈ 403 µM). The MIC in the series with C. albicans came to 29.7 µg/mL (≈ 72.2 µM). In addition, the MIC with A. niger is 158 µg/mL (≈ 384 µM). In the series with P. falciparum strain W2 (setting [3]), the MIC was 3.23 µM (≈ 1.33 µg/mL). Also, the inhibition in vivo at 100 mg/kg in series [1] (setting [4]) is 27.5%. The inhibition in vivo at 200 mg/kg in series [1] (setting [5]) stood at 54.7%. In addition, in series [1] (setting [6]), the inhibition in vivo at 100 mg/kg came out at 36.8%. In addition, the inhibition in vivo at 200 mg/kg in [1] (setting [7]) was 51.9%.

With `Cc1ccc(NC(=O)CNC(=O)C(C)NS(=O)(=O)c2ccc(C)cc2)cc1` (centres unmarked) [Compound 7l, 2–(4-methylphenylsulfonamido)-N-(2-oxo-2-(p-tolylamino)ethyl)propanamide], the melting point was in the range of 120 to 122 °C. Besides, the MIC with B. subtilis was 245 µg/mL (≈ 629 µM). Further, the MIC in the series on E. coli stood at 169 µg/mL (≈ 434 µM). Also, the MIC in the series with S. typhi is 57 µg/mL (≈ 146 µM). Besides, the MIC in the series with K. pneumoniae worked out at 107 µg/mL (≈ 275 µM). Also, in the series with C. albicans, the MIC worked out at 174 µg/mL (≈ 447 µM). Moreover, the MIC in the series with A. niger was 123 µg/mL (≈ 316 µM). Besides, the MIC in the series on P. falciparum strain W2 (setting [3]) came to 0.93 µM (≈ 0.362 µg/mL). The inhibition in vivo at 100 mg/kg in series [1] (setting [4]) worked out at 38.2%. In addition, the inhibition in vivo at 200 mg/kg in series [1] (setting [5]) is 60.7%. The inhibition in vivo at 100 mg/kg in [1] (setting [6]) was 41.7%. Besides, the inhibition in vivo at 200 mg/kg in series [1] (setting [7]) amounted to 74.6%.

Molecule `Cc1ccc(S(=O)(=O)NC(C)C(=O)NCC(=O)Nc2cccc(Cl)c2)cc1` (centres unmarked) [Compound 7h, N-(2-((3-chlorophenyl)amino)-2-oxoethyl)-2–(4-methylphenylsulfonamido)propanamide] returned a melting point of 120 to 122 °C. For the same molecule, the MIC with B. subtilis was found to be 214 µg/mL (≈ 522 µM). For the same molecule, the MIC in the series on E. coli was found to be 239 µg/mL (≈ 583 µM). In the series with S. typhi, the MIC stood at 1290 µg/mL (≈ 3140 µM). Also, in the series on K. pneumoniae, the MIC is 5250 µg/mL (≈ 12800 µM). Further, the MIC in the series on C. albicans came out at 34 µg/mL (≈ 82.9 µM). For the same molecule, in the series with A. niger, the MIC was found to be 31.6 µg/mL (≈ 77.1 µM). In the series with P. falciparum strain W2, the MIC amounted to 50 µM (≈ 20.5 µg/mL). Further, in the series with P. falciparum strain W2 (setting [3]), the MIC came to 0.03 µM (≈ 0.0123 µg/mL). In the series on P. falciparum strain W2 (in words), the “in vitro antimalarial activity relative to other compounds and standard drugs” value is listed as “best activity”. The “ability to inhibit parasitaemia compared to the control drug” value in [1] (in words) is “almost the same or better activity compared to the artemisinin”. Moreover, in series [1] (setting [4]), the inhibition in vivo at 100 mg/kg amounted to 61.4%. Also, the inhibition in vivo at 200 mg/kg in [1] (setting [5]) stood at 49.9%. For the same molecule, the inhibition in vivo at 100 mg/kg in series [1] (setting [6]) was determined as 57.8%. Besides, in [1] (setting [7]), the inhibition in vivo at 200 mg/kg was found to be 55.2%. In addition, in the series “Liver function tests” (After), the ALT stood at 24.5 µ/L, the AST was determined as 69.5 µ/L, the Bilirubin came out at 0.3 mg/dL and the Glucose is on record as 5.5. The molecule also yielded a T.P. in the series “Liver function tests” (After) of 5.5 g/dL. In addition, in “Liver function tests” (Before), the ALT came out at 25.4 µ/L, the AST came to 65.0 µ/L, the Bilirubin turned out to be 0.4 mg/dL and the Glucose was 5.9. In “Liver function tests” (Before), this molecule came in with a T.P. of 6.0 g/dL. Also, in [2] (After), the Albumin came out at 3.9 g/dL and the Creatinine was determined as 0.3 mg/dL. In [2] (Before), this molecule returned an Albumin of 3.9 g/dL and a Creatinine of 0.3 mg/dL. In addition, in the series “Haematological analysis” (After treatment), the HB was determined as 10.0 g/dL, the PCV was 34%, the RBC is 5.9 × 10^6 mm^3 and the WBC is reported as 9.3 × 10^3 mm^3. In the series “Haematological analysis” (Before treatment), the HB was 13.4 g/dL, the PCV was 39%, the RBC is recorded as 7.3 × 10^6 mm^3 and the WBC is 9.4 × 10^3 mm^3.

For `CC(NS(=O)(=O)c1ccccc1)C(=O)NCC(=O)Nc1ccc(Cl)cc1` (centres unmarked) [Compound 7b], the melting point fell in the range of 140 to 142 °C. Besides, in the series on B. subtilis, the MIC came out at 129 µg/mL (≈ 326 µM) and the “activity against Bacillus compared with ciprofloxacin” value is on record as “greater activity against Bacillus than ciprofloxacin”. In addition, the MIC with E. coli is 467 µg/mL (≈ 1180 µM). Besides, in the series on S. typhi, the MIC was 602 µg/mL (≈ 1520 µM). The MIC in the series on K. pneumoniae stood at 1690 µg/mL (≈ 4270 µM). Further, in the series on C. albicans, the MIC came to 135 µg/mL (≈ 341 µM). For the same molecule, the MIC in the series on A. niger came to 100 µg/mL (≈ 253 µM). The same molecule displayed an MIC in the series on P. falciparum strain W2 (setting [3]) of 0.87 µM (≈ 0.344 µg/mL). In series [1] (setting [4]), the inhibition in vivo at 100 mg/kg was found to be 51.3%. Further, the inhibition in vivo at 200 mg/kg in [1] (setting [5]) amounted to 57.6%. The inhibition in vivo at 100 mg/kg in series [1] (setting [6]) was found to be 55.2%. For the same molecule, the inhibition in vivo at 200 mg/kg in series [1] (setting [7]) came out at 53.4%.
